According to patent publication US20220265646A1, “PIEZO AGONISTS FOR PREVENTING OR REVERTING ABNORMAL AMYLOID DEPOSITION” (ITÄ-SUOMEN YLIOPISTO, priority 2019, published 2022):

Target: T1, native Piezo1Rs (Homo sapiens, UniProt Q92508)
T1 construct: endogenous in cells; host or cells: human iPSC-derived microglia
Assay: Calcium imaging of Yoda1-evoked Ca2+ influx in hiPSC-derived microglia
Assay type: cell-based
Conditions: 50 μM Yoda1, control hiPSC microglia pre-incubated 15 min in BS, n=6
Description: To study the calcium influx evoked by native Piezo1 Rs expressed in microglia cells the present inventors used short Yoda1 applications (2 s, 50 μM if not otherwise specified). For this purpose, human IPSO derived microglia cells and SV-40 (immortalized human microglia) cells were seeded on 7 mm cover slips 1 day prior to the imaging experiment. Cells were loaded with the calcium-sensitive fluorescent dye Fluo-4AM (5 μM) for 30 min at 37° C. Followed by wash-incubation for 15 min in Ab 20 μM, 50 μM GdCI and basic solution (BS) as a control at 37° C. The basic solution containing the following (BS, in mM): 2.5 KCl, 152 NaCl, 10 glucose, 2 CaCl2, and 10 HEPES at pH 7.4. Fluorescence was visualized using monochromatic light source (TILL Photonics GmbH) using Ex/Im 494/[…] and a CCD camera (SensiCam). Chemicals were applied using a fast perfusion system (RSC-200, BioLogic Science). To quantify the difference in the amplitude of calcium transients, the ratio values were normalized by subtracting a baseline and further divided by the amplitude of the calcium transient to the 2 sec application of the ionomycin. Data were pre-analyzed offline using the FEI offline analysis (TILL Photonics), and further analysis was automatized using MatLab. Quantitative data were expressed as means±SEM unless otherwise stated. Number of experiments is indicated by n. Significance assessed with the ANOVA test or Mann-Whitney t test for non-parametric data. Statistically significant differences were set at*p<0.05 and **p<0.01.
Differentiation of microglia. Differentiation of microglia was carried out as previously described with minor modifications (Abud et al., 2017). Shortly, on DO, iPSCs were dissociated to single cells with 0.5 mM EDTA or Accutase and were replated at a density of 6-,000-16,000 cells/cm2 on Matrigel in E8, 0.5% penicillin/streptomycin (P/S, 50 IU/50 […]), 5 ng/ml BMP4, 25 ng/ml activin a (both from Peprotech or Miltenyi Biotec), 1 μM CHIR 99021 (Axon or Stem Cell Technologies) and 10 μM Y-27632 to induce mesodermal differentiation. […]

T1 sequence (Q92508 whole entry): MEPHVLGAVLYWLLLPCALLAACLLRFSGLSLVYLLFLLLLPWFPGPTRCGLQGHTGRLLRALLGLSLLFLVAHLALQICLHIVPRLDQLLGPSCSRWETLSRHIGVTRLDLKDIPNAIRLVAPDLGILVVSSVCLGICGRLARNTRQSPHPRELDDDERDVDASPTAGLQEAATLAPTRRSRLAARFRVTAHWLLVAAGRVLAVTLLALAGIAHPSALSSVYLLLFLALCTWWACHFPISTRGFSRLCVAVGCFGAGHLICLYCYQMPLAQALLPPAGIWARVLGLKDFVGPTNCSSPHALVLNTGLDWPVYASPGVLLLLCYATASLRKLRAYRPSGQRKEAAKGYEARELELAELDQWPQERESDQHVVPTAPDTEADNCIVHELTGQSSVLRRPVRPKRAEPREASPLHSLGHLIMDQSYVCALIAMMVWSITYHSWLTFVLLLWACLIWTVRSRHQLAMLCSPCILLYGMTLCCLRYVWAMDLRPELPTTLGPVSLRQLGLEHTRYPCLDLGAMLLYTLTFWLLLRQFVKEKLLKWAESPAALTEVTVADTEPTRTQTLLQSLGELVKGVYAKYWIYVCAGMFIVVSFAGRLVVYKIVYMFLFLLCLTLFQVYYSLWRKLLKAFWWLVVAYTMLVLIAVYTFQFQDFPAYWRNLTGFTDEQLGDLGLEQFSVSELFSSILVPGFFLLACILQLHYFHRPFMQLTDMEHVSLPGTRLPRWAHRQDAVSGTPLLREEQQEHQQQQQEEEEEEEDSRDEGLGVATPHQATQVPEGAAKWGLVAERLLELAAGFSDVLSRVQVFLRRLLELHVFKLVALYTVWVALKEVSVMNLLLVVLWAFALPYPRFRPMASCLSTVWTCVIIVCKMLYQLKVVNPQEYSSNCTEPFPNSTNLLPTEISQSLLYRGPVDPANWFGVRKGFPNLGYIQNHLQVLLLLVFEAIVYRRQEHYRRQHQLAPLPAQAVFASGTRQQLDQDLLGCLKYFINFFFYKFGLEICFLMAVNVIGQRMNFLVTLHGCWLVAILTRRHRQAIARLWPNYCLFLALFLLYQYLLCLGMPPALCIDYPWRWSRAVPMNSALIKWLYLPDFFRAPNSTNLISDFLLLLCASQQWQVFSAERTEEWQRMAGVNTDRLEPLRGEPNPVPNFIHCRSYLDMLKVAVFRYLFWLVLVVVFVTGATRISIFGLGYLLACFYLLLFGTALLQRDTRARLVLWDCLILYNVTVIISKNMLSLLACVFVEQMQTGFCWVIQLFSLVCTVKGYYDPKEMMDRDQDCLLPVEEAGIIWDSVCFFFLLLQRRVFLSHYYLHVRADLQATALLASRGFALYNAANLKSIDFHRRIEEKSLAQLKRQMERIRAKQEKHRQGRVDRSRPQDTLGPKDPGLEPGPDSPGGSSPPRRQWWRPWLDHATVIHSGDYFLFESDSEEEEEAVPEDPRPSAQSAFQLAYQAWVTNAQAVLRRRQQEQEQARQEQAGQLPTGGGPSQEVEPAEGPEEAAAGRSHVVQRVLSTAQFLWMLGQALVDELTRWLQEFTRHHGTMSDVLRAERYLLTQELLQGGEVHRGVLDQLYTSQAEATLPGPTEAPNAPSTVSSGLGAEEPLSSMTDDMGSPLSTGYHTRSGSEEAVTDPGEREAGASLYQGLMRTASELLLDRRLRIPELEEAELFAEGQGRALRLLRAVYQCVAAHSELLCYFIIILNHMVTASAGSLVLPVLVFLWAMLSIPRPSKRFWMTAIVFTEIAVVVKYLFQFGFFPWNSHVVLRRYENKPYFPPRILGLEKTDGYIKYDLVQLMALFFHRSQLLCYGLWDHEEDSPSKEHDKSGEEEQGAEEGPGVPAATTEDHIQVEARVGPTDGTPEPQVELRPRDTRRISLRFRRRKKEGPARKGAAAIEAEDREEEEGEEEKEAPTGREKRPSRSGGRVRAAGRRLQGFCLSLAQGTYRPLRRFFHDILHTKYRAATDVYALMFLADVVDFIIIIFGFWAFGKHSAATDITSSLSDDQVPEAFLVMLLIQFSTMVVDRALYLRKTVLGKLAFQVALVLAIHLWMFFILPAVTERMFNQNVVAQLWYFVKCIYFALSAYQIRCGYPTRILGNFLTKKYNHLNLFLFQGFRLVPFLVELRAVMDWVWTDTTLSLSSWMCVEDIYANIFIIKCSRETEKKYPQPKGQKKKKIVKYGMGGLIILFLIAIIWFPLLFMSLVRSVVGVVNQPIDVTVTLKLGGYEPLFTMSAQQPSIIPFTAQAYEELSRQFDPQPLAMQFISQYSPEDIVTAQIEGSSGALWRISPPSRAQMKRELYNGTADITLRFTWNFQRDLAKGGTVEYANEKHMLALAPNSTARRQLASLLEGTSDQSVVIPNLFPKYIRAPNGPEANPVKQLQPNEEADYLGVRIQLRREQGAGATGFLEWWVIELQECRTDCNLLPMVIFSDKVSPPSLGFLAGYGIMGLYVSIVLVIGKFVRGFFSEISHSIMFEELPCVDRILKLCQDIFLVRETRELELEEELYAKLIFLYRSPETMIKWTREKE

Clc1cccc(Cl)c1CSc1nnc(-c2cnccn2)s1 [Yoda1]
Ca2+ transients evoked by Yoda1 short (2 s) application, amplitude normalized to ionomycin: 1.15±0.36
